Reference: patent US20200384116A1, “SELF-ASSEMBLING VERTEPORFIN AMPHIPHILES (SAVA) FOR LOCAL CANCER THERAPY” (THE JOHNS HOPKINS UNIVERSITY, priority 2016, published 2020)

Key:
Type in all cases: cell-based
[1] = tested on: SW480, PANC-1, MDA-MD-231, MDA-MD-468 and HELA cell lines; test: MTT proliferation assay, non-CNS tumor cell lines; settings: 12.5 μM, 5 or 6 days, in words
Protocol: (§1) Cells tested were subjected to the following protocol: Day 1: 7000 cells per well were seeded in a 96-well plate. Day 3: cells were treated with 12.5 μM of Verteporfin (treatment group) and its equivalent DMSO concentration (control group) in 200 μl of media/well. Proliferation was assessed using MTT at Day 8, 9 using the following method:
(§2) MTT stock solution (5 mg/ml) is added to each culture being assayed to equal one-tenth the original culture volume and incubated for 4 hr. At the end of the incubation period the medium is removed the converted dye is solubilized with 100% isopropanol. Absorbance of converted dye is measured at a wavelength of 570 nm.
The cell lines SW480 (colon adenocarcinoma), PANC-1 (pancreatic cancer), MDA-MD-231 (breast adenocarcinoma), MDA-MD-468 (metastatic breast carcinoma triple negative), and HELA (cervical carcinoma) were treated with 12.5 μM of the SAVA composition, Ver-RGDR, or DMSO (solvent control) for 5 days (FIG. 5a) or 6 days (FIG. 5b) in culture. Cell proliferation was then assessed using the MTT protocol. […] P-values: All cell lines tested at day 5 and 6 had p<0.0001 compared to their corresponding DMSO control. The results were statistically significant.

[2] = tested on: malignant meningioma cell line KT21-MG1; test: MTT cell survival, KT21-MG1
Protocol: (§3) Cells tested were subjected to the following protocol: Day 1: 7000 cells per well were seeded in a 96-well plate. […]
as §2
(§4) The malignant meningioma cell lines KT21-MG1 (FIG. 7), IOMM-Lee (FIG. 8), the primary patient-derived GBM cell lines, JHGB612 and GBM1A, and a patient-derived primary chordoma cell line, JHC7 (FIG. 9) were all tested with a SAVA composition of the present invention, using the protocol of Example 3. All should significant dose-dependent effect on cell survival when compared to controls.

[3] = tested on: malignant meningioma cell line IOMM-Lee; test: MTT cell survival, IOMM-Lee
Protocol: as §3, §2, §4

[4] = tested on: primary patient-derived GBM cell line JHGB612; test: MTT cell survival, JHGB612; settings: dose-dependent, vs controls
Protocol: as §1, §2, §4

[5] = tested on: primary patient-derived GBM cell line GBM1A; test: MTT cell survival, GBM1A; settings: dose-dependent, vs controls
Protocol: as §1, §2, §4

[6] = tested on: patient-derived primary chordoma cell line JHC7; test: MTT cell survival, JHC7; settings: dose-dependent, vs controls
Protocol: as §1, §2, §4

verteporfin
proliferation of non-CNS tumor cells [1]: decreases proliferation | cell survival ([2]; 3 days of treatment): decreases cell survival | cell survival ([2]; 5 days of treatment): decreases cell survival | cell survival ([3]; 3 days of treatment): decreases cell survival | cell survival ([3]; 5 days of treatment): decreases cell survival | effect on proliferation and cell survival [4]: profound dose dependent effect on glioblastoma proliferation and cell survival | effect on proliferation and cell survival [5]: profound dose dependent effect on glioblastoma proliferation and cell survival | effect on cell survival and proliferation [6]: dose dependent effect on chordoma cell survival and proliferation
